Measured values: patent US20230241071A1, “COMBINATION TREATMENT OF LIVER DISORDERS” (Terns Pharmaceuticals, Inc., priority 2021, published 2023)
pIC50: −log10 of the molar value. Marks after values point to notes of the source that are not given here.

Assays:
BCRP = target: T1, BCRP (Homo sapiens, UniProt Q9UNQ0)
T1 sequence (Q9UNQ0 1-655): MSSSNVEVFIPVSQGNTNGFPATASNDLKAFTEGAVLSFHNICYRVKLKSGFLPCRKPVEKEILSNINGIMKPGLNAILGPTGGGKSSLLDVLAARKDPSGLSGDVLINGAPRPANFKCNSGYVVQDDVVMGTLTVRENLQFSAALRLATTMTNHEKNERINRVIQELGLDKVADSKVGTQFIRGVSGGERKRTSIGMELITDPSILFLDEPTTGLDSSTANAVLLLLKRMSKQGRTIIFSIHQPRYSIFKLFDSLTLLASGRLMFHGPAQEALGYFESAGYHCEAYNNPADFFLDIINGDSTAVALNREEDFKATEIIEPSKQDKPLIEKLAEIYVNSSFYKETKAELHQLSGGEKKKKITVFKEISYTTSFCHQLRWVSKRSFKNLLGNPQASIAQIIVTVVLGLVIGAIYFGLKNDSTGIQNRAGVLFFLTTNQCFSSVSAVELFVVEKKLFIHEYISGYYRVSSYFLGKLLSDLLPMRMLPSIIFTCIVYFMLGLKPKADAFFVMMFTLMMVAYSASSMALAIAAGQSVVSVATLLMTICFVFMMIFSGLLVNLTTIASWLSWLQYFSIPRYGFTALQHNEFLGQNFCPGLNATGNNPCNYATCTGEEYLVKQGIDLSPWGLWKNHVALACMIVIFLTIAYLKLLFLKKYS

[1] = system: rat CDHFD+NaNO2 NASH model; test: Rat CDHFD+NaNO2 NASH model, liver RNAseq; format: in vivo; conditions: 8 wk, Compound 3 3 mg/kg, Compound 1 25 mg/kg; for Down DEGs / Total DEGs / Up DEGs: liver RNAseq vs vehicle NASH control, adj. p<0.01, fold-change ≥1.5
Description: Animal handling: After arrival, the rats were left for a 2-week acclimation period, during which they were accustomed to the animal facility staff and trained on the procedure of oral gavage. After 2 weeks the animals were put on CHDFD (choline deficient high fat diet) and pre-fed for 4 weeks. Then the rats were started on treatment with test compounds, and 3× per week i.p. NaNO2 injections, while they remained on CDHFD, for an additional 8 weeks. NaNO2 was administered at 25 mg/kg i.p. dissolved in PBS 3 times a week (on Mondays, Wednesdays, and Fridays) for 8 weeks while on CDHFD.
(§1) Final Sacrifice: Half of the animals of each treatment group were terminated on day 84. The other half of the animals in each group were terminated on the following day, day 85. On the day of sacrifice the animals were fasted for 2 h and received a final treatment with the respective test substance. After the final compound treatment, the animals had no more access to food until sacrifice. At 4 h after the last administration all animals were sacrificed and livers were sampled for further analysis.
Animal handling: After arrival, the rats were left for a 2-week acclimation period, during which they were accustomed to the animal facility staff and trained on the procedure of oral gavage. After 2 weeks the animals were placed on a choline deficient high fat diet (CDHFD) and pre-fed for 4 weeks to induce steatosis and a NASH-like disease phenotype. Rats were then treated with test compounds for an additional 8 weeks while on CDHFD. Concomitant with compound treatment, rats were administered sodium nitrite (NaNO2, 25 mg/kg dissolved in PBS) by triweekly intraperitoneal (IP) injection to induce liver fibrosis.
as §1, with “2 hours” for “2 h”, “4 hours” for “4 h”
Sampling and analysis: Small liver pieces were harvested into RNAlater (Thermo Fisher Scientific Dreieich Germany) and stored at −20° C. prior to RNA sequencing (RNAseq) at MedGenome Inc. RNAseq analysis was performed on liver tissue by Illumina sequencing using standard methodologies. Briefly, RNAseq libraries (n=5 per group) were generated using Illumina Truseq stranded mRNA kits and sequencing was performed on a NovaSeq 6000 sequencer. Alignment was performed using STAR (v2.7.3a) aligner and reads mapping to ribosomal and mitochondrial genome were removed prior to alignment. Raw read counts were estimated using HTSeq (v0.11.1) and normalized using DESeq2 (v2.22.2). Differentially expressed genes (DEGs) were determined using DESeq2 (R Bioconductor package).

In the case of `N#Cc1nn(-c2cc(Cl)c(Oc3n[nH]c(=O)c4ccccc34)c(Cl)c2)c(=O)[nH]c1=O` [Compound 2, 2-(3,5-dichloro-4-((4-oxo-3,4-dihydrophthalazin-1-yl)oxy)phenyl)-3,5-dioxo-2,3,4,5-tetrahydro-1,2,4-triazine-6-carbonitrile], the pIC50 (BCRP) was 5.03.

With `COC1CCN(c2ncc(OC/C(=C/F)CN)cn2)CC1` [Compound 1, (E)-3-fluoro-2-(((2-(4-methoxypiperidin-1-yl)pyrimidin-5-yl)oxy)methyl)prop-2-en-1-amine] the “Down DEGs” value [1] was 641, the “Total DEGs” value [1] was 847 and the “Up DEGs” value [1] was 206.

For `Cn1cc(C(=O)O)c2ccc(N3CCC(OCc4c(-c5c(Cl)cccc5Cl)noc4C4CC4)CC3)cc21` [Compound 3], the “Down DEGs” value [1] was 118, the “Total DEGs” value [1] was 309 and the “Up DEGs” value [1] was 191. The “Fabp2 differential gene expression relative to vehicle control” value ([1]; liver RNAseq) was −1.02* log2-fold change, the “Irs1 differential gene expression relative to vehicle control” value ([1]; liver RNAseq) was −0.03 log2-fold change and the “Irs2 differential gene expression relative to vehicle control” value ([1]; liver RNAseq) was 0.27 log2-fold change. The “Ldlr differential gene expression relative to vehicle control” value ([1]; liver RNAseq) was 0.4 log2-fold change, the “Ldlrap1 differential gene expression relative to vehicle control” value ([1]; liver RNAseq) was −0.07 log2-fold change and the “Lrp1 differential gene expression relative to vehicle control” value ([1]; liver RNAseq) was 0.51 log2-fold change. For the same compound, the “Lrp2 differential gene expression relative to vehicle control” value ([1]; liver RNAseq) was 0.33 log2-fold change, the “Ppara differential gene expression relative to vehicle control” value ([1]; liver RNAseq) was 0.36 log2-fold change and the “Ppargcla differential gene expression relative to vehicle control” value ([1]; liver RNAseq) was 0.25 log2-fold change. The “Rxra differential gene expression relative to vehicle control” value ([1]; liver RNAseq) was 0.03 log2-fold change, the “Slc27a1 differential gene expression relative to vehicle control” value ([1]; liver RNAseq) was 0.16 log2-fold change and the “Slc27a5 differential gene expression relative to vehicle control” value ([1]; liver RNAseq) was 0.5 log2-fold change. For the same compound, the “Vegfa differential gene expression relative to vehicle control” value ([1]; liver RNAseq) was 0.48 log2-fold change, the “Vegfc differential gene expression relative to vehicle control” value ([1]; liver RNAseq) was −0.28 log2-fold change and the “Vldlr differential gene expression relative to vehicle control” value ([1]; liver RNAseq) was −0.58 log2-fold change. For the same compound, the pIC50 (BCRP) was 5.36.
